# In patent US7947285B2, “Methods for preventing post endoscopic retrograde cholangiopancreatography pancreatitis” (priority 2003, dated 2011):
# Where no end group is shown, it is not given here.
# Assays:
# [1] = tested on: patients undergoing ERCP; experiment: Pain, nausea and vomiting scores pre and post ERCP (0-10 scale); assay type: in vivo, human
# Description: (§1) Incidence of post-ERCP pancreatitis (sPS vs. placebo) was evaluated as the primary efficacy variable in this study. Secondary efficacy variables included incidences of post-ERCP pancreatitis in the following sub-populations: (1) cannulation of CBD; (2) sphincterotomy of CBD; (3) cannulation of pancreatic duct; (4) sphincterotomy of pancreatic duct; (5) stent insertion and removal into CBD; (6) stent insertion and removal into pancreatic duct; (7) stone extraction (basket) from CBD; (8) stone extraction (balloon) from CBD; (9) manometry of CBD; (10) manometry of pancreatic duct; (11) pain scores pre and post ERCP (0-10 scale); (12) nausea scores pre and post ERCP (0-10 scale); (13) vomiting scores pre and post ERCP (0-10 scale); (14) return to baseline activity (pre-ERCP); and (15) return to work.
# Primary and secondary efficacy variables were compared between the treatment groups using the Fisher Exact Test or Cochran-Mantel Haenszel Association Test. Adverse events and vital signs (heart rate, blood pressure) were compared between the treatment groups using the t-test. The clinical assumption on which the power calculation is based was on incidence of post-ERCP pancreatitis among all patients without pancreas divisum of 6%. In order to show a 50% reduction in the rate of post-ERCP pancreatitis with a significance of p=0.05, at a power of 80%, 749 evaluable patients per treatment group (sPS vs. placebo) were needed.
# Additional secondary efficacy analyses were performed on post-ERCP pain, nausea, and vomiting using a 0 to 10 digital scale. There were no significant differences between the treatment groups for baseline (pre procedure) pain, nausea and vomiting. There were also no significant differences in these variables post-ERCP although there was a slight numerical trend indicating less nausea for sPS ([…]).
# [2] = tested on: patients undergoing ERCP; experiment: Return to baseline (pre-ERCP) activity and return to work; assay type: in vivo, human
# Description: as §1
# Additional secondary efficacy variables assessed were return to baseline (pre-ERCP levels of activity) and the time in days to return of pre-ERCP activity levels. There was a small difference in the percentage of patients reporting return to baseline activity within the follow-up period (2 to 4 days post-ERCP) favoring the placebo group (p=0.0230) (49.78% vs. 42.09%). Interims of the mean number of days required to achieve pre-ERCP activity levels, was 0.6 (±1.0) for the sPS group and 0.7 (±0.9) for the placebo group. An attempt was made to obtain information on return to work. Relatively few data points were able to be collected, however, because a large percentage of patients were not working pre-ERCP (retired, too ill, etc.) among the 185 patients (95 in the sPS group and 90 in the placebo group) providing relevant responses for this variable, 46.32% of sPS patients and 50.00% of placebo patients reported returning to work within the follow-up period.
substance,measurement,setting,value
"synthetic porcine secretin (HSDGTFTSELSRLRDSARLQRLLQGLV-NH2; ends and bridges not checked; UniProt P63298 33-59, looked up) [SPS, synthetic form of porcine secretin, a 27 amino acid gastrointestinal peptide hormone]","Nausea post-ERCP, Mean (SD)",[1]; N = 485,0.9 (2.1) (N = 485)
same,"Pain Post-ERCP, Mean (SD)",[1]; N = 485,1.8 (3.0) (N = 485)
same,"Vomiting post-ERCP, Mean (SD)",[1]; N = 485,0.6 (1.9) (N = 485)
same,"Vomiting pre-ERCP, Mean (SD)","[1]; baseline, N = 482",0.1 (0.8) (N = 482)
same,"Nausea Pre-ERCP, Mean (SD)","[1]; baseline, N = 483",0.6 (1.7) (N = 483)
same,"Pain Pre-ERCP, Mean (SD)","[1]; baseline, N = 483",1.4 (0.6) (N = 483)
same,"Change in Vomiting, Mean (SD)","[1]; pre to post ERCP, N = 479, p 0.0776",0.5 (2.0) (N = 479)
same,"Change in Nausea, Mean (SD)","[1]; pre to post ERCP, N = 480, p 0.0284",0.3 (2.5) (N = 480)
same,"Change in Pain, Mean (SD)","[1]; pre to post ERCP, N = 480, p 0.0668",0.4 (3.4) (N = 480)
same,mean number of days required to achieve pre-ERCP activity levels,[2]; in vivo,0.6 (±1.0) days
same,percentage of patients reporting return to baseline activity,"[2]; within the follow-up period (2 to 4 days post-ERCP), p=0.0230 favoring placebo",42.09%
same,patients reported returning to work,"[2]; within the follow-up period, 95 patients in the sPS group, not significant",46.32%
